According to patent publication US9623014B2 (Entasis Therapeutics Limited, priority 2012, dated 2017):

Legend:
[1] = system: Pseudomonas aeruginosa PER-1, OXA-10; assay: Synergy with β-lactams (MIC of β-lactam at fixed inhibitor concentration); format: cell-based; settings: MIC of ceftazidime + inhibitor at fixed 4 ug/ml
Protocol: (§1) Synergy with β-lactams was assessed against several organisms producing a variety of β-lactamases belonging to different classes. Bush & Jacoby, Updated Functional Classification of β-Lactamases, Antimicrobial Agents and Chemotherapy, 54:969-76 (2010). In the assays, growth inhibitory activity (MIC) was measured using either two-fold dilutions of the partner β-lactam at a fixed concentration of compounds of formula (I). Compounds were prepared in DMSO, and MIC determinations using the compound of formula (I)/β-lactam combinations were done according to the CLSI guidelines. Clinical Laboratory Standards Institute: Methods for Dilution Antimicrobial Susceptability Tests for Bacteria That Grow Aerobically (8th Ed. (2009)) M07-A8. Synergy was defined as a four-fold or more reduction in the MIC of the β-lactam in the presence of the compound of formula (I), compared to the β-lactam alone.

[2] = system: Klebsiella pneumoniae KPC2; assay: as above; format: cell-based; settings: MIC of ceftazidime + inhibitor at fixed 4 ug/ml
Protocol: as §1

[3] = system: Pseudomonas aeruginosa PER-1, OXA-10; assay: MIC alone against β-lactamase producing strain; format: cell-based; settings: substance alone
Protocol: (§2) Minimum Inhibitory Concentrations (MICs) were determined by the broth microdilution method in accordance with the Clinical and Laboratory Standards Institute (CLSI) guidelines. Clinical Laboratory Standards Institute: Methods for Dilution Antimicrobial Susceptability Tests for Bacteria That Grow Aerobically (8th Ed. (2009)) M07-A8. In brief, organism suspensions were adjusted to a 0.5 McFarland standard and further diluted to yield a final inoculum between 3×10^5 and 7×10^5 colony-forming units (CFU)/mL. Bacterial inocula were made in sterile, cation adjusted Mueller-Hinton Broth (Beckton Dickinson) for either Escherichia coli, Klebsiella pneumoniae, or Pseudomonas aeruginosa. Haemophilus influenzae bacterial inocula were made in sterile, cation adjusted Mueller-Hinton Broth (Beckton Dickinson) containing 0.5% yeast extract (Beckton Dickinson) plus 15 μg/ml Bovine Hematin (Sigma) and 15 μg/ml β-nicotinamide adenine dinucleotide (Sigma). Bacterial inocula were made in sterile, cation adjusted Mueller-Hinton Broth (Beckton Dickinson) for Staphylococcus aureus or sterile, cation adjusted Mueller-Hinton Broth containing 2.5% lysed horse blood (Hema Resource & Supply Inc.) for Streptococcus pneumoniae and Streptococcus pyogenes. An inoculum volume of 100 uL was added to wells (using a Tecan EVO robot) containing 2 uL of DMSO containing 2-fold serial dilutions of drug. […] All inoculated microdilution trays were incubated in ambient air at 35° C. for 18-24 hours. Following incubation, the lowest concentration of the drug that prevented visible growth as read at OD600 nm was recorded as the MIC. Performance of the assay was monitored by the use of laboratory quality-control strains and commercially available control compounds with defined MIC spectrums, in accordance with CLSI guidelines.

[4] = system: Klebsiella pneumoniae KPC2; assay: MIC alone against β-lactamase producing strain; format: cell-based; settings: substance alone
Protocol: as §2

S. aureus (MRSA) = assay: MIC, broth microdilution (CLSI); format: cell-based, Staphylococcus aureus; settings: compound alone
Protocol: as §2

S. aureus (MSSA) = assay: MIC, broth microdilution (CLSI); format: cell-based, Staphylococcus aureus; settings: compound alone
Protocol: as §2

Klebsiella pneumoniae = assay: MIC, broth microdilution (CLSI); format: cell-based; settings: compound alone
Protocol: as §2

Streptococcus pyogenes = assay: MIC, broth microdilution (CLSI); format: cell-based; settings: compound alone
Protocol: as §2

Haemophilus influenzae = assay: MIC, broth microdilution (CLSI); format: cell-based; settings: compound alone
Protocol: as §2

Escherichia coli = assay: MIC, broth microdilution (CLSI); format: cell-based; settings: compound alone
Protocol: as §2

Streptococcus pneumoniae = assay: MIC, broth microdilution (CLSI); format: cell-based; settings: compound alone
Protocol: as §2

Pseudomonas aeruginosa = assay: MIC, broth microdilution (CLSI); format: cell-based; settings: compound alone
Protocol: as §2

CC(C)C1=C[C@@H]2CN(C(=O)N2OS(=O)(=O)[O-])[C@@H]1C(N)=O.[Na+] [Example 11]
MIC Pseudomonas aeruginosa PER-1, OXA-10 [1]: 16 µM | MIC Klebsiella pneumoniae KPC2 [2]: 1 µM | MIC Pseudomonas aeruginosa PER-1, OXA-10 [3]: >16 µg/mL | MIC Klebsiella pneumoniae KPC2 [4]: >16 µg/mL | MIC S. aureus (MRSA) (S. aureus (MRSA)): >200 µg/mL | MIC S. aureus (MSSA) (S. aureus (MSSA)): 100 µg/mL | MIC K. pneumon. (Klebsiella pneumoniae): >200 µg/mL | MIC S. pyogenes (Streptococcus pyogenes): 25 µg/mL | MIC H. influenzae (Haemophilus influenzae): >200 µg/mL | MIC E. coli (Escherichia coli): >200 µg/mL | MIC S. pneumon. (Streptococcus pneumoniae): 25 µg/mL | MIC P. aeruginosa (Pseudomonas aeruginosa): >200 µg/mL
